For the assay, the system named is mushroom tyrosinase. Nature of the assay: Mushroom Tyrosinase Assay. It is filed as biochemical. The settings on record: for % of Control (Melanin Synthesis): L-DOPA substrate, slope of 475-nm absorbency vs. ethanol control. How it is done: Mushroom tyrosinase inhibition is indicative of reduction in melanin synthesis, thereby showing skin lightening effect. […] Following an initial measurement of background absorbency at 475-nm, 20 microliters of mushroom tyrosinase (Sigma T-7755; 6050 units/ml) was added and incubated at room temperature. Absorbency is read at 475-nm over the following time points: 0, 2, 4, and 6.5 minutes. The data is plotted as 475-nm absorbency vs. time (minutes) and the slope of the line is calculated (ΔAbs 475nm/min). Values are expressed as the percentage of the respective untreated ethanol control reaction. [formula]

On to `CCc1ccc(O)cc1O` [4-Ethyl Resorcinol], for which the “% of Control (Melanin Synthesis)” value reads like this: (0.1 uM compound) 73 % of Control; (1 uM compound) 46 % of Control; (10 uM compound) 31 % of Control; (100 uM compound) 21 % of Control.

`Oc1cccc(O)c1` [Resorcinol]: the “% of Control (Melanin Synthesis)” value reads like this: (0.1 uM compound) 97 % of Control; (1 uM compound) 98 % of Control; (10 uM compound) 98 % of Control; (100 uM compound) 100 % of Control. Besides, for the setting “summary of Table 8”, the “activity in the mushroom tyrosinase assay (in words)” value is “does not display activity”.

Regarding `Oc1ccc(C2SCCCS2)c(O)c1` [1,3-di-Thiane Resorcinol], the “% of Control (Melanin Synthesis)” value is listed as 87 % of Control (0.1 uM compound), 57 % of Control (1 uM compound), 48 % of Control (10 uM compound) and 47 % of Control (100 uM compound).
